Experiments:
Format in all cases: physicochemical
[1] = lambda max (Vis) of compound in solution, UV/Visible spectrophotometer; conditions: solution in diethylene glycol dimethyl ether, approximately 0.5 milligram per milliliter
Experimental: The compound of Example 13 identified as 13A and the compound of Example 14 were dissolved in diethylene glycol dimethyl ether. The concentration of the resulting solution was approximately 0.5 milligram per milliliter. Each solution was tested in a UV/Visible Spectrophotometer to determine the lambda max (Vis).

[2] = photochromic response of test squares on an optical bench (sensitivity, saturation, bleach rate); conditions: for ΔOD @ Saturation: UV exposure continued for 15 minutes; for ΔOD @ Saturation / Sensitivity ΔOD/min: 72° F. (22.2° C.); for Sensitivity ΔOD/min: first five (5) seconds of UV exposure, expressed per minute; for Bleach Rate T 1/2: time to one half the highest absorbance at room temperature (72° F., 22.2° C.) after removal of activating light
Experimental: (§1) Testing was done with the photochromic compounds prepared in Examples 1-14 in the following manner. A quantity of each photochromic compound, except Compounds 13A and 14, calculated to yield a 1.5×10^-3 molal solution was added to a flask containing 50 grams of a monomer blend of 4 parts ethoxylated bisphenol A dimethacrylate (BPA 2EO DMA), 1 part poly(ethylene glycol) 600 dimethacrylate, and 0.033 weight percent 2,2'-azobis(2-methyl propionitrile) (AIBN). Each photochromic compound was dissolved into the monomer blend by stirring and gentle heating. After a clear solution was obtained, it was poured into a flat sheet mold having the interior dimensions of 2.2 mm×6 inches (15.24 cm)×6 inches (15.24 cm). The mold was sealed and placed in a horizontal air flow, programmable oven programmed to increase the temperature from 40° C. to 95° C. over a 5 hour interval, hold the temperature at 95° C. for 3 hours, lower it to 60° C. over a 2 hour interval and then hold at 60° C. for 16 hours. After the mold was opened, the polymer sheet was cut using a diamond blade saw into 2 inch (5.1 centimeters) test squares.
The photochromic test squares prepared in Part A were tested for photochromic response on an optical bench. Prior to testing on the optical bench, the photochromic test squares were exposed to 365 nanometer ultraviolet light for about 15 minutes to activate the photochromic compounds and then placed in a 76° C. oven for about 15 minutes to bleach or inactivate the photochromic compounds. The test squares were then cooled to room temperature, exposed to fluorescent room lighting for at least 2 hours and then kept covered for at least 2 hours prior to testing on an optical bench maintained at 72° F. (22.2° C.). The bench was fitted with a 150 watt Xenon arc lamp, a remote controlled shutter, a copper sulfate bath acting as a heat sink for the arc lamp, a Schott WG-320 nm cut-off filter which removes short wavelength radiation; neutral density filter(s) and a sample holder in which the square to be tested was inserted. The power output of the optical bench, i.e., the dosage of light that the sample lens would be exposed to, was calibrated with a photochromic test square used as a reference standard. […] The UV-A detector was placed into the sample holder and the light output was measured. Adjustments to the power output were made by increasing or decreasing the lamp wattage or by adding or removing neutral density filters in the light path.
A monitoring, collimated beam of light from a tungsten lamp was passed through the square at a small angle (approximately 30°) normal to the square. After passing through the square, the light from the tungsten lamp was directed to a detector through Spectral Energy Corp. GM-200 monochromator set at the previously determined visible lambda max of the photochromic compound being measured. The output signals from the detector were processed by a radiometer.
Change in optical density (ΔOD) was determined by inserting a test square in the bleached state into the sample holder, adjusting the transmittance scale to 100%, opening the shutter from the Xenon lamp to provide ultraviolet radiation to change the test square from the bleached state to an activated (i.e., darkened) state, measuring the transmittance in the activated state, and calculating the change in optical density according to the formula: ΔOD=log(100/% Ta), where % Ta is the percent transmittance in the activated state and the logarithm is to the base 10.
The ΔOD/min, which represents the sensitivity of the photochromic compound's response to UV light, was measured over the first five (5) seconds of UV exposure, then expressed on a per minute basis. The saturation optical density (ΔOD@ Saturation) was taken under identical conditions as the ΔOD/min, except UV exposure was continued for 15 minutes. […]

[3] = lambda max (Vis) of photochromic test square polymerizates, UV-Visible spectrophotometer; conditions: activated (colored) form in polymer test square (BPA 2EO DMA / poly(ethylene glycol) 600 dimethacrylate), 1.5×10^-3 molal
Experimental: as §1
The ΔOD/min, which represents the sensitivity of the photochromic compound's response to UV light, was measured over the first five (5) seconds of UV exposure, then expressed on a per minute basis. The saturation optical density (ΔOD@ Saturation) was taken under identical conditions as the ΔOD/min, except UV exposure was continued for 15 minutes. The lambda max (Vis) is the wavelength in nanometers (nm) in the visible spectrum at which the maximum absorption of the activated (colored) form of the photochromic compound in a test square occurs. The lambda max (Vis) wavelength was determined by testing the photochromic test square polymerizates of Part A in a Varian Cary 3 UV-Visible spectrophotometer. The Bleach Rate (T 1/2) is the time interval in seconds for the absorbance of the activated form of the photochromic compound in the test squares to reach one half the highest absorbance at room temperature (72° F., 22.2° C.) after removal of the source of activating light.

Row | lambda max (Vis) [1] [nanometers] | ΔOD @ Saturation [2] | Sensitivity ΔOD/min [2] | Bleach Rate T 1/2 [2] [min] | lambda max (Vis) [3] [nanometers] | SMILES
1 | 460 | – | – | – | – | CC1(C)Cc2c(c3c(c4ccccc24)OC(c2ccccc2)(c2ccccc2)C=C3)C(=O)O1 [Example 14]
2 | – | 1.46 | 0.60 ΔOD/min | 4.13 | 476 | O=C1OC(c2ccccc2)Oc2c1c1c(c3ccccc23)OC(c2ccccc2)(c2ccccc2)C=C1 (centres unmarked) [Example 7, 2,7,7-triphenyl-4-oxo-4H-7H-[1,3]dioxino[5',4':3,4]naphtho[1,2-b]pyran]
3 | – | 0.32 | 0.26 ΔOD/min | 2.33 | 467 | C=C(C)C(=O)OCCn1c(=O)oc2c(c3c(c4ccccc42)OC(c2ccccc2)(c2ccccc2)C=C3)c1=O [Example 12, 3-(2-methacryloyloxyethyl)-7,7-diphenyl-2,4-dioxo-2,3,4,7-tetrahydro[1,3]oxazino[5',6':3,4]naphtho[1,2-b]pyran]
4 | – | 0.40 | 0.41 ΔOD/min | 0.85 | 469 | Cn1c(=O)oc2c(c3c(c4ccccc42)OC(c2ccccc2)(c2ccccc2)C=C3)c1=O [Example 9, 3-methyl-7,7-diphenyl-2,4-dioxo-2,3,4,7-tetrahydro[1,3]oxazino[5',6':3,4]naphtho[1,2-b]pyran]
5 | – | 1.71 | 0.67 ΔOD/min | 4.13 | 474 | CCC1OC(=O)c2c3c(c4ccccc4c2O1)OC(c1ccccc1)(c1ccccc1)C=C3 (centres unmarked) [Example 4, 7,7-diphenyl-2-ethyl-4-oxo-4H-7H-[1,3]dioxino[5',4':3,4]naphtho[1,2-b]pyran]
6 | – | 1.89 | 0.76 ΔOD/min | 3.67 | 472 | O=C1OCOc2c1c1c(c3ccccc23)OC(c2ccccc2)(c2ccccc2)C=C1 [Example 1, 7,7-diphenyl-4-oxo-4H-7H-[1,3]dioxino[5'4':3,4]naphtho[1,2-b]pyran]
7 | – | 0.41 | 0.46 ΔOD/min | 0.883 | 471 | CCCCCCn1c(=O)oc2c(c3c(c4ccccc42)OC(c2ccccc2)(c2ccccc2)C=C3)c1=O [Example 11, 3-hexyl-7,7-diphenyl-2,4-dioxo-2,3,4,7-tetrahydro[1,3]oxazino[5',6':3,4]naphtho[1,2-b]pyran]
8 | – | 0.67 | 0.74 ΔOD/min | 0.85 | 510 | COc1ccc(C2(c3ccc(OC)cc3)C=Cc3c4c(c5ccccc5c3O2)OCOC4=O)cc1 [Example 2, 7,7-di(4-methoxyphenyl)-4-oxo-4H-7H-[1,3]dioxino[5',4':3,4]naphtho[1,2-b]pyran]
9 | 471 | – | – | – | – | O=C1OC(c2ccccc2)(c2ccccc2)Nc2c1c1c(c3ccccc23)OC(c2ccccc2)(c2ccccc2)C=C1 [Example 13A, 2,2,7,7-tetraphenyl-4-oxo-2,3,4,7-tetrahydro-1H-[1,3]oxazino[5',4':3,4]naphtho[1,2-b]pyran]
10 | – | 1.28 | 0.75 ΔOD/min | 1.95 | 496 | CCCCCC1OC(=O)c2c3c(c4ccccc4c2O1)OC(c1ccccc1)(c1ccc(OC)cc1)C=C3 (centres unmarked) [Example 3, 7-(4-methoxyphenyl)-7-phenyl-2-pentyl-4-oxo-4H-7H-[1,3]dioxino[5',4':3,4]naphtho[1,2-b]pyran]
11 | – | 1.72 | 0.64 ΔOD/min | 4 | 475 | CC(C)CC1OC(=O)c2c3c(c4ccccc4c2O1)OC(c1ccccc1)(c1ccccc1)C=C3 (centres unmarked) [Example 6, 7,7-diphenyl-2-(2-methylpropyl)-4-oxo-4H-7H-[1,3]dioxino[5',4':3,4]naphtho[1,2-b]pyran]
12 | – | 1.74 | 0.67 ΔOD/min | 4.23 | 478 | CCCCCC1OC(=O)c2c3c(c4ccccc4c2O1)OC(c1ccccc1)(c1ccccc1)C=C3 (centres unmarked) [Example 5, 7,7-diphenyl-2-pentyl-4-oxo-4H-7H-[1,3]dioxino[5',4':3,4]naphtho[1,2-b]pyran]
13 | – | 0.38 | 0.44 ΔOD/min | 0.7 | 468 | CCOC(=O)CCn1c(=O)oc2c(c3c(c4ccccc42)OC(c2ccccc2)(c2ccccc2)C=C3)c1=O [Example 10, 3-(2-ethoxycarbonylethyl)-7,7-diphenyl-2,4-dioxo-2,3,4,7-tetrahydro[1,3]oxazino[5',6':3,4]naphtho[1,2-b]pyran]
14 | – | 1.58 | 0.63 ΔOD/min | 4.18 | 475 | CC(c1ccccc1)C1OC(=O)c2c3c(c4ccccc4c2O1)OC(c1ccccc1)(c1ccccc1)C=C3 (centres unmarked) [Example 8, 7,7-diphenyl-2-(1-phenylethyl)-4-oxo-4H-7H-[1,3]dioxino[5',4':3,4]naphtho[1,2-b]pyran]

Source: patent US6022497A, “Photochromic six-membered heterocyclic-fused naphthopyrans” (PPG Industries Ohio, Inc., priority 1999, dated 2000)
